Source: PubChem BioAssay AID1259407 (Chemical Carcinogenesis Research Information System (CCRIS), 2018)
Active and inactive are the calls of the source. No rule for the calls is given here.

Tested on: CCRIS mutagenicity, Ames/micronucleus/aberration tests
Test: CCRIS mutagenicity studies
[1] = Test System: AMES SALMONELLA TYPHIMURIUM, Strain/Indicator: TA98, Metabolic Activation: NONE, Method: STANDARD PLATE
[2] = Test System: AMES SALMONELLA TYPHIMURIUM, Strain/Indicator: TA100, Metabolic Activation: NONE, Method: STANDARD PLATE
[3] = Test System: AMES SALMONELLA TYPHIMURIUM, Strain/Indicator: TA1535, Metabolic Activation: NONE, Method: STANDARD PLATE
[4] = Test System: AMES SALMONELLA TYPHIMURIUM, Strain/Indicator: TA1537, Metabolic Activation: NONE, Method: STANDARD PLATE
[5] = Test System: AMES SALMONELLA TYPHIMURIUM, Strain/Indicator: TA1538, Metabolic Activation: NONE, Method: STANDARD PLATE

## NCCNCCNCCN
Test System: AMES SALMONELLA TYPHIMURIUM, Strain/Indicator: TA98, Metabolic Activation: HAMSTER, LIVER, S-9, AROCLOR 1254 (10%), Method: PREINCUBATION
  mutagenic call: active; positive
Test System: AMES SALMONELLA TYPHIMURIUM, Strain/Indicator: TA98, Metabolic Activation: NONE, Method: PREINCUBATION
  mutagenic call: active; positive
[1]
  mutagenic call: active; positive
Test System: AMES SALMONELLA TYPHIMURIUM, Strain/Indicator: TA98, Metabolic Activation: RAT, LIVER, S-9, AROCLOR 1254 (10%), Method: PREINCUBATION
  mutagenic call: active; positive
Test System: AMES SALMONELLA TYPHIMURIUM, Strain/Indicator: TA98, Metabolic Activation: RAT, LIVER, S-9, PCB, Method: PREINCUBATION
  mutagenic call: active; positive
Test System: AMES SALMONELLA TYPHIMURIUM, Strain/Indicator: TA100, Metabolic Activation: HAMSTER, LIVER, S-9, AROCLOR 1254 (10%), Method: PREINCUBATION
  mutagenic call: active; positive
Test System: AMES SALMONELLA TYPHIMURIUM, Strain/Indicator: TA100, Metabolic Activation: NONE, Method: PREINCUBATION
  mutagenic call: active; positive
[2]
  mutagenic call: active; positive
Test System: AMES SALMONELLA TYPHIMURIUM, Strain/Indicator: TA100, Metabolic Activation: RAT, LIVER, S-9, AROCLOR 1254 (10%), Method: PREINCUBATION
  mutagenic call: active; positive
Test System: AMES SALMONELLA TYPHIMURIUM, Strain/Indicator: TA100, Metabolic Activation: RAT, LIVER, S-9, PCB, Method: PREINCUBATION
  mutagenic call: active; positive
Test System: AMES SALMONELLA TYPHIMURIUM, Strain/Indicator: TA1535, Metabolic Activation: HAMSTER, LIVER, S-9, AROCLOR 1254 (10%), Method: PREINCUBATION
  mutagenic call: active; positive
Test System: AMES SALMONELLA TYPHIMURIUM, Strain/Indicator: TA1535, Metabolic Activation: NONE, Method: PREINCUBATION
  mutagenic call: active; positive
[3]
  mutagenic call: inactive; negative
Test System: AMES SALMONELLA TYPHIMURIUM, Strain/Indicator: TA1535, Metabolic Activation: RAT, LIVER, S-9, AROCLOR 1254 (10%), Method: PREINCUBATION
  mutagenic call: active; positive
Test System: AMES SALMONELLA TYPHIMURIUM, Strain/Indicator: TA1535, Metabolic Activation: RAT, LIVER, S-9, AROCLOR 1254, Method: STANDARD PLATE
  mutagenic call: active; positive
Test System: AMES SALMONELLA TYPHIMURIUM, Strain/Indicator: TA1537, Metabolic Activation: HAMSTER, LIVER, S-9, AROCLOR 1254 (10%), Method: PREINCUBATION
  mutagenic call: active; positive
Test System: AMES SALMONELLA TYPHIMURIUM, Strain/Indicator: TA1537, Metabolic Activation: NONE, Method: PREINCUBATION
  mutagenic call: active; positive
[4]
  mutagenic call: active; positive
Test System: AMES SALMONELLA TYPHIMURIUM, Strain/Indicator: TA1537, Metabolic Activation: RAT, LIVER, S-9, AROCLOR 1254 (10%), Method: PREINCUBATION
  mutagenic call: active; positive
Test System: AMES SALMONELLA TYPHIMURIUM, Strain/Indicator: TA1537, Metabolic Activation: RAT, LIVER, S-9, AROCLOR 1254, Method: STANDARD PLATE
  mutagenic call: inactive; negative
[5]
  mutagenic call: active; positive
Test System: AMES SALMONELLA TYPHIMURIUM, Strain/Indicator: TA1538, Metabolic Activation: RAT, LIVER, S-9, AROCLOR 1254, Method: STANDARD PLATE
  mutagenic call: inactive; negative
Test System: CHINESE HAMSTER OVARY, Strain/Indicator: CHO (HGPRT)/6-THIOGUANINE, Metabolic Activation: NONE
  mutagenic call: inactive; negative
Test System: CHINESE HAMSTER OVARY, Strain/Indicator: CHO (HGPRT)/6-THIOGUANINE, Metabolic Activation: RAT, LIVER, S-9, AROCLOR 1254
  mutagenic call: inactive; negative
Test System: UDS RAT HEPATOCYTES, Strain/Indicator: THY INCORP, Metabolic Activation: NONE, Method: SCINTILLATION SPECTROMETRY
  mutagenic call: active; positive

## O=C1O[C@@H]2[C@@H](O)CO[C@]2(O)[C@@]1(O)Cc1c[nH]c2ccccc12
[1]
  mutagenic call: inactive; negative
Test System: AMES SALMONELLA TYPHIMURIUM, Strain/Indicator: TA98, Metabolic Activation: RAT, LIVER, S-9, PCB, Method: STANDARD PLATE
  mutagenic call: inactive; negative
[2]
  mutagenic call: inactive; negative
Test System: AMES SALMONELLA TYPHIMURIUM, Strain/Indicator: TA100, Metabolic Activation: RAT, LIVER, S-9, PCB, Method: STANDARD PLATE
  mutagenic call: inactive; negative

## CCN(CCCl)CCCNc1c2ccc(Cl)cc2nc2ccc(OC)cc12
[1]
  mutagenic call: active; positive
[2]
  mutagenic call: active; positive
[3]
  mutagenic call: inactive; negative
Test System: AMES SALMONELLA TYPHIMURIUM, Strain/Indicator: TA1536, Metabolic Activation: NONE, Method: STANDARD PLATE
  mutagenic call: active; positive
[4]
  mutagenic call: active; positive
[5]
  mutagenic call: active; positive
Test System: CHINESE HAMSTER OVARY, Strain/Indicator: CHO-K1-BH4 (HGPRT)/6-THIOGUANINE, Metabolic Activation: NONE, Method: SUSPENSION/PLATE
  mutagenic call: active; positive
Test System: CHINESE HAMSTER OVARY, Strain/Indicator: CHO-K1-BH4 (HGPRT), Metabolic Activation: NONE, Method: MONOLAYER ASSAY
  mutagenic call: active; positive
Test System: CHINESE HAMSTER OVARY, Strain/Indicator: CHO-K1-BH4 (HGPRT), Metabolic Activation: NONE, Method: SUSPENSION/PLATE
  mutagenic call: active; positive
Test System: CHINESE HAMSTER V-79, Strain/Indicator: V-79/6-THIOGUANINE, Metabolic Activation: NONE, Method: FLASK ASSAY
  mutagenic call: active; positive
Test System: CHINESE HAMSTER V-79, Strain/Indicator: V-79/8-AZAGUANINE, Metabolic Activation: NONE, Method: STANDARD PLATE
  mutagenic call: active; positive
Test System: CHO/HGPRT, Strain/Indicator: CHO-K1-BH4, Metabolic Activation: NONE, Method: STANDARD PLATE
  mutagenic call: active; positive
Test System: MOUSE LYMPHOMA, Strain/Indicator: L5178Y (TK+/TK-), Metabolic Activation: NONE, Method: SUSPENSION/PLATE
  mutagenic call: active; positive
Test System: Mouse lymphoma, Strain/Indicator: L5178Y (tk+/tk-), Metabolic Activation: None, Method: Suspension/plate
  mutagenic call: active; positive
Test System: Mouse lymphoma, Strain/Indicator: L5178Y (tk+/tk-), Metabolic Activation: Rat, Liver, S-9, Aroclor 1254, Method: Suspension/plate
  mutagenic call: inconclusive (previous evaluation equivocal)

## CC(C)N(CC(O)c1ccc(NS(C)(=O)=O)cc1)N=O (stereo unspecified)
Test System: UDS HUMAN HEPATOCYTES, Strain/Indicator: THY INCORP, Metabolic Activation: NONE, Method: AUTORADIOGRAPHY
  mutagenic call: active; positive
Test System: UDS RAT HEPATOCYTES, Strain/Indicator: THY INCORP, Metabolic Activation: NONE, Method: AUTORADIOGRAPHY
  mutagenic call: active; positive
